Among the data in patent US20100137313A1 (ASTRAZENECA AB, priority 2008, published 2010) are inhibition values, retold here.

SMILES strings stand for the structures.

S. pneumoniae Topoisomerase IV ATPase (ParE), sequence (Q59961 whole entry): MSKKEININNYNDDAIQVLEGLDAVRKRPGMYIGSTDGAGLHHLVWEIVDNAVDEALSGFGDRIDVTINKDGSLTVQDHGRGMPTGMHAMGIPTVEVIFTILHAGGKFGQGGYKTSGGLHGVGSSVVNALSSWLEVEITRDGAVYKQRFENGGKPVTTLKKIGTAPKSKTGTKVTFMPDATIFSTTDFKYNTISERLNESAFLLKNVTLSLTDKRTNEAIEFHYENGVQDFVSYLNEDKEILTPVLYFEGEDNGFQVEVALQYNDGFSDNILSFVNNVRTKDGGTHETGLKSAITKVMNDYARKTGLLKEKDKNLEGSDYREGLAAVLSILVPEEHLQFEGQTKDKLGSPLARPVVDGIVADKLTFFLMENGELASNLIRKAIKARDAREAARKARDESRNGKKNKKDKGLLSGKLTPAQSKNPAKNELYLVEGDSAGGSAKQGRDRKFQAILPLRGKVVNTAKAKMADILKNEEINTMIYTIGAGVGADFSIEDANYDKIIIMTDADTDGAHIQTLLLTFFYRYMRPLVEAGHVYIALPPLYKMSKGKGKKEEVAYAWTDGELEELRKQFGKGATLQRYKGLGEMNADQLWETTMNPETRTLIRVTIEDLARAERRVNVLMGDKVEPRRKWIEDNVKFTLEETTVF

The test has as its target S. pneumoniae Topoisomerase IV ATPase (ParE) (Streptococcus pneumoniae serotype 4, UniProt Q59961). The test is described as follows: S. pneumoniae Topoisomerase IV ATPase inhibition. The test is classed as biochemical. The following applies: values marked * are an average of two or more data points, read-out: % Inh (13 μM) of S. pneumoniae Topoisomerase IV ATPase. The method, boiled down: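 Malachite green/ammonium molybdate phosphate detection, A650. 1.25 nM ParE, 160 μM ATP, sheared salmon sperm DNA 5 μg/ml, 20 mM Tris pH 8.0, 8.0 mM MgCl2. Controls: 2% DMSO = 0%, 20 μM EDTA = 100% inhibition; IC50 over 10 concentrations.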
For the compound `COc1ncc(-c2cnc(Nc3cc(C)cc(C)c3)nc2-n2nc(C(F)(F)F)cc2C)cc1C(=O)NS(=O)(=O)CCCN1CCOCC1` [Example 829, 5-{2-[(3,5-dimethylphenyl)amino]-4-[5-methyl-3-(trifluoromethyl)-1H-pyrazol-1-yl]pyrimidin-5-yl}-2-methoxy-N-{[3-(morpholin-4-yl)propyl]sulfonyl}pyridine-3-carboxamide], the inhibition at 13 µM turned out to be 100%. Under `CONC(=O)c1cncc(-c2cnc(Nc3ccc(F)c(Cl)c3)nc2NCCc2c[nH]cn2)c1` [Example 475, 5-(2-[(3-chloro-4-fluorophenyl)amino]-4-{[2-(1H-imidazol-4-yl)ethyl]amino}pyrimidin-5-yl)-N-methoxypyridine-3-carboxamide] stands 93%; under `O=C(O)c1cncc(-c2cnc(Nc3ccc(F)c(Cl)c3)nc2N[C@H]2CC[C@H](O)CC2)c1` [Example 255, 5-[2-[(3-chloro-4-fluorophenyl)amino]-4-[(4-hydroxycyclohexyl)-amino]pyrimidin-5-yl]pyridine-3-carboxylic acid], 72.8%; under `COc1cc(C#N)cc(Nc2ncc(-c3cnc(OC)c(C(=O)O)c3)c(-n3nc(C(F)(F)F)cc3C)n2)c1` [Example 737, 5-{2-[(3-cyano-5-methoxyphenyl)amino]-4-[5-methyl-3-(trifluoromethyl)-1H-pyrazol-1-yl]pyrimidin-5-yl}-2-methoxypyridine-3-carboxylic acid], 97%. As to `N#Cc1cc(Cl)cc(Nc2ncc(-c3cncc(C(=O)O)c3)c(N3CCOCC3)n2)c1` [Example 392, 5-[2-(3-Chloro-5-cyano-phenylamino)-4-morpholin-4-yl-pyrimidin-5-yl]-nicotinic acid], the inhibition at 13 µM is 74%.

With `Cc1cc(C(F)(F)F)nn1-c1nc(Nc2ccc(F)c(Cl)c2)ncc1-c1cncc(C(=O)NCCNS(C)(=O)=O)c1` [Example 925, 5-(2-(3-chloro-4-fluorophenylamino)-4-(5-methyl-3-(trifluoromethyl)-1H-pyrazol-1-yl)pyrimidin-5-yl)-N-(2-(methylsulfonamido)ethyl)nictinamide], the inhibition at 13 µM was found to be 88%. With `COc1cc(F)cc(Nc2ncc(-c3cccc(C(=O)O)c3)c(-n3ccc(C(F)(F)F)n3)n2)c1` [Example 893, 3-(2-(3-fluoro-5-methoxyphenylamino)-4-(3-(trifluoromethyl)-1H-pyrazol-1-yl)pyrimidin-5-yl)benzoic acid], the inhibition at 13 µM amounted to 99%.

In the case of `COc1cc(F)cc(Nc2ncc(-c3cnc(OC)c(C(=O)O)c3)c(-n3ccc(C(F)(F)F)n3)n2)c1` [Example 923, 5-(2-(3-fluoro-5-methoxyphenylamino)-4-(3-(trifluoromethyl)-1H-pyrazol-1-yl)pyrimidin-5-yl)-2-methoxynicotinic acid], the inhibition at 13 µM stood at 100%. Regarding `CNC(=O)c1cncc(-c2cnc(Nc3cc(OC)cc(OC)c3)nc2-n2ccc(C(F)(F)F)n2)c1` [Example 678, 5-{2-[(3,5-dimethoxyphenyl)amino]-4-[3-(trifluoromethyl)-1H-pyrazol-1-yl]pyrimidin-5-yl}-N-methylpyridine-3-carboxamide], the inhibition at 13 µM is 100%. On to `COc1cc(C)cc(Nc2ncc(-c3cnc(OC)c(-c4n[nH]c(=O)o4)c3)c(-n3nc(C(F)(F)F)cc3C)n2)c1` [Example 1170, 5-(2-methoxy-5-{2-[(3-methoxy-5-methylphenyl)amino]-4-[5-methyl-3-(trifluoromethyl)-1H-pyrazol-1-yl]pyrimidin-5-yl}pyridin-3-yl)-1,3,4-oxadiazol-2(3H)-one], for which the inhibition at 13 µM came to 100%. On to `COCCCNc1nc(Nc2ccc(F)c(Cl)c2)ncc1-c1ccc2ncc(C(=O)O)cc2c1` [Example 305, 6-(2-(3-chloro-4-fluorophenylamino)-4-(3-methoxypropylamino)-pyrimidin-5-yl)quinoline-3-carboxylic acid], for which the inhibition at 13 µM was determined as 89.2%.

As to `O=C(O)c1cncc(-c2cnc(Nc3ccc(F)c(Cl)c3)nc2N[C@@H]2CCOC2)c1` [Example 279, (R)-5-(2-(3-chloro-4-fluorophenylamino)-4-(tetrahydrofuran-3-ylamino)pyrimidin-5-yl)nicotinic acid], the inhibition at 13 µM was found to be 80.4%. As to `CCS(=O)(=O)NC(=O)c1cc(-c2cnc(Nc3cc(OC)cc(OC)c3)nc2-n2nc(C(F)(F)F)cc2C)cnc1OC` [Example 815, 5-{2-[(3,5-dimethoxyphenyl)amino]-4-[5-methyl-3-(trifluoromethyl)-1H-pyrazol-1-yl]pyrimidin-5-yl}-N-(ethylsulfonyl)-2-methoxypyridine-3-carboxamide], the inhibition at 13 µM came out at 100%. Turning to `O=C(O)/C=C/c1cccc(-c2cnc(Nc3ccc(F)c(Cl)c3)nc2NCCc2nc3ccccc3[nH]2)c1` [Example 265, (2E)-3-[3-(4-{[2-(1H-benzimidazol-2-yl)ethyl]amino}-2-[(3-chloro-4-fluorophenyl)amino]pyrimidin-5-yl)phenyl]prop-2-enoic acid], the inhibition at 13 µM came out at 84.9%. Under `COc1cc(F)cc(Nc2ncc(-c3ccc(C(=O)O)o3)c(-n3ccc(C(F)(F)F)n3)n2)c1` [Example 892, 5-(2-(3-fluoro-5-methoxyphenylamino)-4-(3-(trifluoromethyl)-1H-pyrazol-1-yl)pyrimidin-5-yl)furan-2-carboxylic acid] stands 100%.

Regarding `O=C(O)c1cncc(-c2cnc(Nc3ccc(F)c(Cl)c3)nc2-n2nnc3ccccc32)c1` [Example 318, 5-{4-(1H-benzotriazol-1-yl)-2-[(3-chloro-4-fluorophenyl)amino]pyrimidin-5-yl}pyridine-3-carboxylic acid], the inhibition at 13 µM was 92.3%. Take `Cc1cc(C(F)(F)F)nn1-c1nc(Nc2cccc(Cl)c2)ncc1-c1cncc(C(=O)O)c1` [Example 744, 5-{2-[(3-chlorophenyl)amino]-4-[5-methyl-3-(trifluoromethyl)-1H-pyrazol-1-yl]pyrimidin-5-yl}pyridine-3-carboxylic acid]: the inhibition at 13 µM is 100%. The figure for `COCCn1cc(-c2cnc(Nc3ccc(F)c(Cl)c3)nc2-n2nc(C(F)(F)F)cc2C)cc(C(=O)O)c1=O` [Example 1082, 5-(2-(3-Chloro-4-fluorophenylamino)-4-(5-methyl-3-(trifluoromethyl)-1H-pyrazol-1-yl)pyrimidin-5-yl)-1-(2-methoxyethyl)-2-oxo-1,2-dihydropyridine-3-carboxylic acid] is 100%; for `O=C(O)c1cncc(-c2cnc(Nc3ccc(F)c(Cl)c3)nc2-n2cnc(Cl)c2Cl)c1` [Example 327, 5-{2-[(3-chloro-4-fluorophenyl)amino]-4-(4,5-dichloro-1H-imidazol-1-yl)pyrimidin-5-yl}pyridine-3-carboxylic acid] it is 99%; for `CC(C)Nc1nc(Nc2ccc(F)c(Cl)c2)ncc1-c1cncnc1` [Example 59, N^2-(3-chloro-4-fluorophenyl)-N^4-propan-2-yl-5-pyrimidin-5-ylpyrimidine-2,4-diamine] it is 51.8%. For `COCC(COC)Oc1ncc(-c2cnc(Nc3ccc(F)c(Cl)c3)nc2-n2ccc(C(F)(F)F)n2)cc1C(=O)O` [Example 869, 5-(2-(3-chloro-4-fluorophenylamino)-4-(3-(trifluoromethyl)-1H-pyrazol-1-yl)pyrimidin-5-yl)-2-(1,3-dimethoxypropan-2-yloxy)nicotinic acid], the inhibition at 13 µM is 93%. Regarding `O=C(O)COc1ccc(-c2cnc(Nc3ccc(F)c(Cl)c3)nc2N2CCOCC2)cc1` [Example 489, (4-{2-[(3-chloro-4-fluorophenyl)amino]-4-(morpholin-4-yl)pyrimidin-5-yl}phenoxy)acetic acid], the inhibition at 13 µM stood at 97%. Turning to `COc1ncc(-c2cnc(Nc3ccc(F)c(Cl)c3)nc2-n2ccc(C(F)(F)F)n2)cc1/C=C/C(=O)O` [Example 1030, (E)-3-(5-(2-(3-chloro-4-fluorophenylamino)-4-(3-(trifluoromethyl)-1H-pyrazol-1-yl)pyrimidin-5-yl)-2-methoxypyridin-3-yl)acrylic acid], the inhibition at 13 µM was 100%. On to `COc1cc(Nc2ncc(-c3cncc(C(=O)NS(C)(=O)=O)c3)c(-n3nc(C(F)(F)F)cc3C)n2)cc(OC)c1` [Example 687, 5-{2-[(3,5-dimethoxyphenyl)amino]-4-[5-methyl-3-(trifluoromethyl)-1H-pyrazol-1-yl]pyrimidin-5-yl}-N-(methylsulfonyl)pyridine-3-carboxamide], for which the inhibition at 13 µM amounted to 100%. Under `COc1cc(F)cc(Nc2ncc(-c3cc(C(=O)O)c(=O)n(C)c3)c(-n3nc(C(F)(F)F)cc3C)n2)c1` [Example 921, 5-(2-(3-fluoro-5-methoxyphenylamino)-4-(5-methyl-3-(trifluoromethyl)-1H-pyrazol-1-yl)pyrimidin-5-yl)-1-methyl-2-oxo-1,2-dihydropyridine-3-carboxylic acid] stands 99%. With `O=C(O)c1cncc(-c2cnc(Nc3ccc(F)c(Cl)c3)nc2-n2nc(C(F)F)cc2C(F)F)c1` [Example 532, 5-{4-[3,5-bis(difluoromethyl)-1H-pyrazol-1-yl]-2-[(3-chloro-4-fluorophenyl)amino]-pyrimidin-5-yl}pyridine-3-carboxylic acid], the inhibition at 13 µM stood at 100%. The figure for `CCS(=O)(=O)NC(=O)c1cc(-c2cnc(Nc3cc(OC)cc(OC)c3)nc2-n2nc(C(F)(F)F)cc2C)cn(CCOC)c1=O` [Example 1162, 5-(2-(3,5-dimethoxyphenylamino)-4-(5-methyl-3-(trifluoromethyl)-1H-pyrazol-1-yl)pyrimidin-5-yl)-N-(ethylsulfonyl)-1-(2-methoxyethyl)-2-oxo-1,2-dihydropyridiine-3-carboxamide] is 100%; for `COc1cc(Nc2ncc(-c3ccc(C(=O)O)s3)c(NCCCN(C)C)n2)cc(C(F)(F)F)c1` [Example 346, 5-{4-[3-(dimethylamino)propylamino]-2-[3-methoxy-5-(trifluoromethyl)phenylamino]pyrimidin-5-yl}thiophene-2-carboxylic acid] it is 79.5%.
